The record followed here is patent US9738697B2 (Wisconsin Alumni Research Foundation, priority 2013, dated 2017).

pEC50: −log10 of the molar value.

For one data set, the target named is human GLP-1 receptor (Homo sapiens, UniProt P43220). Description: GLP-1R activation monitored by cAMP production in HEK293 cells. (In general: cAMP levels reflect the balance of adenylyl cyclase and phosphodiesterase activity.)
The subject of a further data set is C57BL/6J mice. Kind of data set: Glucose tolerance test (GTT) in mice. Type of data set: in vivo, mouse. The protocol:
ID. NO: 7 was administered to mice by interperitoneal (i.p.) injection at a 1 mg/kg dose, or lower for SEQ. ID. NO: 7, using an injection volume of 10 mL/kg body mass. Each peptide was first dissolved in prefiltered DMSO at 10 mg/mL concentration, then diluted >20-fold with TBS buffer, pH 7.4 (final DMSO conc.=<5%). Glucose was administered by i.p. injection with a sterile-filtered 30% D-glucose-saline solution at a 1.5 g/kg dose using a 5 mL/kg injection volume.
Thirteen-week-old male C57BL/6J mice (The Jackson Laboratory) (n=4) were fasted overnight on wood chip bedding for 15 hours prior to the experiment. Blood glucose levels were monitored from a tail tip bleed using an ACCU-CHEK®-brand blood glucose meter (Roche Diagnostics, Indianapolis, Ind.). Fasting glucose levels were measured at 75 minutes prior to the glucose injection (t=−75 min), and the compound injection was performed 60 minutes prior to the glucose injection (t=−60 min). Glucose levels were measured immediately prior to the glucose injection (t=0 min) to assess any changes in the baseline glucose caused by peptide administration. Blood glucose levels were monitored at 30, 60, 90, and 120 minutes after injection of glucose.
Five hours after peptide injection, the mice received a second injection of 1.5 g/kg glucose. Blood glucose was monitored at 30 min after this second glucose injection. Mice were sacrificed by CO2 inhalation at the conclusion of the GTT.

The test system of the next data set is mouse pancreatic islets. Kind of data set: Islet cell insulin secretion assay (glucose-stimulated insulin secretion, insulin content). It is filed as cell-based. The method, then: A critical physiological role of GLP-1 is to augment glucose-stimulated insulin secretion (GSIS) from pancreatic islet β cells. α/β-Peptide SEQ. ID. […] The results are depicted in FIG. 2.
ID. NO: 7. Approximately 100 medium sized islets were washed three times, placed in a sterile Petri dish, and incubated overnight in culture medium (RPMI 1640, with 11.1 mM glucose, antibiotics and 10% heat-inactivated fetal bovine serum). The following day, 50 islets were washed and transferred in […] of Krebs Ringer Buffer (KRB) to a Swinnex®-brand filter holder (EMD Millipore, Billerica, Mass.). The islets were sandwiched between two layers of Bio-Gel P-2 bead (Bio-Rad, Hercules, Calif.) solution (200 mg beads/mL in KRB; bottom layer, […] and top layer, […]). The Swinnex filter holder was attached in-line with a Minipuls®-brand pump (Gilson, Middleton, Wis.) and a FC 204 Fraction Collector (Gilson). Islets were perifused at the rate of 1 mL/min, and samples were collected at 30 sec intervals. Insulin content of the islets themselves and insulin secretion were determined by ELISA. […] ID. NO: 7.

For the next data set, the target named is T1, neprilysin (Homo sapiens, UniProt P08473).
T1 construct: purchased Reprokine; Ltd. RKP08473
Kind of data set: Protease assay with neprilysin (HPLC). Particulars: 40 μg/mL neprilysin. It is filed as in vitro ADME.

The next data set concerns the target T2, chymotrypsin (Bos taurus, UniProt P00766).
T2 construct: purchased Promega V1062
Description: Protease assay with chymotrypsin (HPLC). Type of data set: in vitro ADME. To be noted: chymotrypsin in TBS; 40 μM peptide, 50 μg/mL chymotrypsin, TBS pH 8.0, room temperature; read-out: t1/2 with chymotrypsin (converted). The protocol:
An HPLC method from the literature was used to assess protease action on selected compounds.^29,31 Two nmol of solid peptide was dissolved in 40 μL of TBS pH 8.0 (resulting concentration of peptide=40 μM) before protease was added. Chymotrypsin was purchased from Promega (Fitchburg, Wis.; catalog #V1062), and neprilysin was purchased from Reprokine. Ltd. (Valley Cottage, N.Y.; catalog #RKP08473); stock solutions of 250 μg/mL chymotrypsin and 200 μg/mL neprilysin in water were prepared. A 10 μL aliquot of protease stock solution was added to 40 μL of 40 μM peptide solution to begin the reaction. Periodically, a 10 μL aliquot of the solution was removed, and protease action was halted by adding this aliquot to 100 μL of 1% aqueous TFA solution. A portion (100 μL) of the quenched solution was injected onto an HPLC column using the conditions described under “Peptide Synthesis”, and peaks were analyzed using MALDI-TOF MS. The time course of peptide degradation was experimentally determined by integrating the area of each peak in a series of HPLC traces. The area percent of parent peptide (relative to the initial trace) was calculated for each trace and plotted in GraphPad Prism as an exponential decay to determine half-life values.
ID. […] Major backbone cut sites are indicated with double front slashes. […] Digestion occurs at three major cleavage sites. […] ID. NO: 7 with 50 μg/mL chymotrypsin in TBS pH 8.0 at room temperature. […] ID. NO: 9 with 50 μg/mL chymotrypsin in TBS pH 8.0 at room temperature. This peptide has seven substitutions, α→Aib.

Broadly, the pEC50 is the EC50 on a negative log10 scale, so that one unit is a factor of ten.

human GLP-1 receptor, sequence (P43220 24-463): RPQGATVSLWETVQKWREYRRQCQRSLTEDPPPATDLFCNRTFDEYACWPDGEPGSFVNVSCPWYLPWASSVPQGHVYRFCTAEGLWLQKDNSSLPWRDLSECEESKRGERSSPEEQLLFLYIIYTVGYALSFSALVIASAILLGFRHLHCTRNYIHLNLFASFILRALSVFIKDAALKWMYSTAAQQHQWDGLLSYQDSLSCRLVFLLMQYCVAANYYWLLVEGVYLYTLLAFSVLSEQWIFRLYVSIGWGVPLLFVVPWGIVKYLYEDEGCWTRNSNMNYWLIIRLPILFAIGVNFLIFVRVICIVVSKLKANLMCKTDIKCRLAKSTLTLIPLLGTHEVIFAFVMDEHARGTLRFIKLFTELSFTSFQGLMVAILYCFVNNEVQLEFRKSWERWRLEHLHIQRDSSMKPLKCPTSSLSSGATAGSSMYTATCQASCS
T1 sequence (P08473 whole entry): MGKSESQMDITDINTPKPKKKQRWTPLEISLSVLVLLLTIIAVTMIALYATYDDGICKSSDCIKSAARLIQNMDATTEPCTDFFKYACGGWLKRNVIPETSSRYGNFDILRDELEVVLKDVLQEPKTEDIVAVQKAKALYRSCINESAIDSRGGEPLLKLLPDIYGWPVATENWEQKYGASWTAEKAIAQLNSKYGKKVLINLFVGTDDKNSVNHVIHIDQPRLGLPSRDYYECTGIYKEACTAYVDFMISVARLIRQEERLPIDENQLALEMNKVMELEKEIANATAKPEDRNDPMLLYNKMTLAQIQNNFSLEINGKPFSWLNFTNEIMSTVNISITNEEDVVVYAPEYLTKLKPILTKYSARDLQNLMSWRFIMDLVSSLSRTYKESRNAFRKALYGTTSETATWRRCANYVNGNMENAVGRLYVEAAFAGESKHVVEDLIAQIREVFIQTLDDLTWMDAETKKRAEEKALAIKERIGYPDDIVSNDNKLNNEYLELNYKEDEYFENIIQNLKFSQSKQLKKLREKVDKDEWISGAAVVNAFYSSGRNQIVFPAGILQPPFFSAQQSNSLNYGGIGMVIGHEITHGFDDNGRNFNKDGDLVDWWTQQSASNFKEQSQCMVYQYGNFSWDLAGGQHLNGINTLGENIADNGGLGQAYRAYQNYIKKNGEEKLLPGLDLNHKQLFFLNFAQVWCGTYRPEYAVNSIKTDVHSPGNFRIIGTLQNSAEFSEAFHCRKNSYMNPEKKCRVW
Description for neprilysin: An HPLC method from the literature was used to assess protease action on selected compounds.^29,31 Two nmol of solid peptide was dissolved in 40 μL of TBS pH 8.0 (resulting concentration of peptide=40 μM) before protease was added. Chymotrypsin was purchased from Promega (Fitchburg, Wis.; catalog #V1062), and neprilysin was purchased from Reprokine. Ltd. (Valley Cottage, N.Y.; catalog #RKP08473); stock solutions of 250 μg/mL chymotrypsin and 200 μg/mL neprilysin in water were prepared. A 10 μL aliquot of protease stock solution was added to 40 μL of 40 μM peptide solution to begin the reaction. Periodically, a 10 μL aliquot of the solution was removed, and protease action was halted by adding this aliquot to 100 μL of 1% aqueous TFA solution. […] The time course of peptide degradation was experimentally determined by integrating the area of each peak in a series of HPLC traces. The area percent of parent peptide (relative to the initial trace) was calculated for each trace and plotted in GraphPad Prism as an exponential decay to determine half-life values.
Major backbone cut sites, as determined by MALDI-TOF-MS, are indicated with double front slashes.

`CC[C@H](C)[C@H](NC(=O)[C@H](Cc1ccccc1)NC(=O)[C@H](CCC(=O)O)NC(=O)[C@H](CCCCN)NC(=O)[C@H](C)NC(=O)[C@H](C)NC(=O)[C@H](CCC(N)=O)NC(=O)CNC(=O)[C@H](CCC(=O)O)NC(=O)[C@H](CC(C)C)NC(=O)[C@H](Cc1ccc(O)cc1)NC(=O)[C@H](CO)NC(=O)[C@H](CO)NC(=O)C(C)(C)NC(=O)[C@H](CC(=O)O)NC(=O)[C@H](CO)NC(=O)[C@@H](NC(=O)[C@H](Cc1ccccc1)NC(=O)[C@@H](NC(=O)CNC(=O)[C@H](CCC(=O)O)NC(=O)[C@H](C)NC(=O)[C@@H](N)Cc1c[nH]cn1)[C@@H](C)O)[C@@H](C)O)C(=O)N[C@@H](C)C(=O)N[C@@H](Cc1c[nH]c2ccccc12)C(=O)N[C@@H](CC(C)C)C(=O)N[C@H](C(=O)N[C@@H](CCCCN)C(=O)NCC(=O)N[C@@H](CCCNC(=N)N)C(=O)NCC(N)=O)C(C)C` [SEQ. ID. NO: 14]: the “agonist character at GLP-1R (in words)” value at human GLP-1 receptor (cAMP production) is “native-like efficacy and potency”.

Consider “Exendin-4: GLP-1R agonist found in the saliva of the Gila monster (39 residues), active agent in exenatide; purchased from Anaspec”, for which, in the data set on C57BL/6J mice (1 mg/kg), the “rise of glucose relative to vehicle-treated mice during the GTT (in words)” value was “dramatic suppression”. The “Average Blood Glucose Level” value is recorded as 89.5 mg/dL with C57BL/6J mice (1 mg/kg i.p., time 0.0 min); 123.5 mg/dL in the data set with C57BL/6J mice (1 mg/kg i.p., time 30.0 min); 87.0 mg/dL in the data set with C57BL/6J mice (1 mg/kg i.p., time 60.0 min); 67.5 mg/dL in the data set on C57BL/6J mice (1 mg/kg i.p., time 90.0 min); 70.0 mg/dL in the data set with C57BL/6J mice (1 mg/kg i.p., time 120.0 min); 118.0 mg/dL in the data set with C57BL/6J mice (1 mg/kg i.p., time −60.0 min (peptide injection)). Also, the “Average Blood Glucose Level at 30 min (column head AUC)” value with C57BL/6J mice (1 mg/kg i.p., Table 7, 30 min after second glucose injection given five hours after peptide) is 118.8. Further, in the data set on C57BL/6J mice (1 mg/kg, 30 min after the second glucose challenge), the “glucose-lowering effect in GTT repeated 5 hours after agonist administration (in words)” value is given as “maintained”.

For the compound `CC[C@H](C)[C@H](NC(=O)[C@H](Cc1ccccc1)NC(=O)[C@H](CCC(=O)O)NC(=O)[C@H](CCCCN)NC(=O)[C@H](C)NC(=O)[C@H](C)NC(=O)[C@H](CCC(N)=O)NC(=O)CNC(=O)[C@H](CCC(=O)O)NC(=O)[C@H](CC(C)C)NC(=O)[C@H](Cc1ccc(O)cc1)NC(=O)[C@H](CO)NC(=O)[C@H](CO)NC(=O)[C@@H](NC(=O)[C@H](CC(=O)O)NC(=O)[C@H](CO)NC(=O)[C@@H](NC(=O)[C@H](Cc1ccccc1)NC(=O)[C@@H](NC(=O)CNC(=O)[C@H](CCC(=O)O)NC(=O)[C@H](C)NC(=O)[C@@H](N)Cc1c[nH]cn1)[C@@H](C)O)[C@@H](C)O)C(C)C)C(=O)N[C@@H](C)C(=O)N[C@@H](Cc1c[nH]c2ccccc12)C(=O)N[C@@H](CC(C)C)C(=O)N[C@H](C(=O)N[C@@H](CCCCN)C(=O)NCC(=O)N[C@@H](CCCNC(=N)N)C(N)=O)C(C)C` [GLP-1(7-36)-NH2], the “increase in glucose-stimulated insulin secretion (GSIS)” value in the data set on mouse pancreatic islets (freshly isolated mouse islets, 90 nM agonist) is roughly 2 fold.

Turning to “GLP-1: glucagon-like peptide-1; used loosely for GLP-1(7-36)-NH2 (Tables 3, 5) or GLP-1(7-37)-NH2”, the “Insulin Content average (ng/3 islets)” value is recorded as 522.1 ng/3 islets with mouse pancreatic islets (high glucose + 3 nM peptide), 496.4 ng/3 islets in the data set on mouse pancreatic islets (high glucose + 10 nM peptide), 458.6 ng/3 islets in the data set with mouse pancreatic islets (high glucose + 30 nM peptide) and 463.1 ng/3 islets in the data set with mouse pancreatic islets (high glucose + 90 nM peptide).

Take `CC[C@H](C)[C@H](NC(=O)[C@H](Cc1ccccc1)NC(=O)[C@H](CCC(=O)O)NC(=O)C(C)(C)NC(=O)[C@H](C)NC(=O)[C@H](C)NC(=O)[C@H](CCC(N)=O)NC(=O)C(C)(C)NC(=O)[C@H](CCC(=O)O)NC(=O)[C@H](CC(C)C)NC(=O)[C@H](Cc1ccc(O)cc1)NC(=O)C(C)(C)NC(=O)[C@H](CO)NC(=O)C(C)(C)NC(=O)[C@H](CC(=O)O)NC(=O)[C@H](CO)NC(=O)[C@@H](NC(=O)[C@H](Cc1ccccc1)NC(=O)[C@@H](NC(=O)CNC(=O)[C@H](CCC(=O)O)NC(=O)C(C)(C)NC(=O)[C@@H](N)Cc1c[nH]cn1)[C@@H](C)O)[C@@H](C)O)C(=O)NC(C)(C)C(=O)N[C@@H](Cc1c[nH]c2ccccc12)C(=O)N[C@@H](CC(C)C)C(=O)N[C@H](C(=O)NC(C)(C)C(=O)NCC(=O)N[C@@H](CCCNC(=N)N)C(=O)NCC(N)=O)C(C)C` [SEQ. ID. NO: 9]: the “number of major cleavage sites, neprilysin” value at neprilysin (MALDI-TOF-MS) was “six”. Also, the half-life is 8.3 h at neprilysin (neprilysin in TBS, pH 8, 40 μM peptide, TBS pH 8.0, room temperature, read-out: half-life (t1/2) with neprilysin (converted)) and 2.25 min at chymotrypsin.

`CC[C@H](C)[C@H](NC(=O)[C@H](Cc1ccccc1)NC(=O)[C@H](CCC(=O)O)NC(=O)C1CCCC1NC(=O)[C@H](C)NC(=O)[C@H](C)NC(=O)[C@H](CCC(N)=O)NC(=O)C1CCCC1NC(=O)[C@H](CCC(=O)O)NC(=O)[C@H](CC(C)C)NC(=O)[C@H](Cc1ccc(O)cc1)NC(=O)C1CCCC1NC(=O)[C@H](CO)NC(=O)[C@@H](NC(=O)[C@H](CC(=O)O)NC(=O)C1CCCC1NC(=O)[C@@H](NC(=O)[C@H](Cc1ccccc1)NC(=O)[C@@H](NC(=O)CNC(=O)[C@H](CCC(=O)O)NC(=O)[C@H](C)NC(=O)[C@@H](N)Cc1c[nH]cn1)[C@@H](C)O)[C@@H](C)O)C(C)C)C(=O)NC1CCCC1C(=O)N[C@@H](Cc1c[nH]c2ccccc12)C(=O)N[C@@H](CC(C)C)C(=O)N[C@H](C(=O)NC1CNCC1C(=O)NCC(=O)N[C@@H](CCCNC(=N)N)C(=O)NCC(N)=O)C(C)C` (some centres unmarked) [SEQ. ID. NO: 6, H-HAEGTFTXDVSXYLEXQAAXEFIXWLVZGRG-NH2] had a pEC50 on human GLP-1 receptor of less than 7.00. For the same compound, the “cAMP production at 100 nM (in words)” value on human GLP-1 receptor (100 nM peptide) is listed as “only a small amount of cAMP production”. Further, the “cAMP production, AVERAGES at M Concentrations −7” value at human GLP-1 receptor (peptide concentration −7 (log M)) is on record as 100. On human GLP-1 receptor (peptide concentration −8 (log M)), the “cAMP production, AVERAGES at M Concentrations −8” value was 99.2328. Besides, on human GLP-1 receptor (peptide concentration −9 (log M)), the “cAMP production, AVERAGES at M Concentrations −9” value is 42.7672. The “cAMP production, AVERAGES at M Concentrations −10” value on human GLP-1 receptor (peptide concentration −10 (log M)) came to 18.05. For the same compound, on human GLP-1 receptor (peptide concentration −12 (log M)), the “cAMP production, AVERAGES at M Concentrations −12” value was determined as 5.688. Besides, the “cAMP production, AVERAGES at M Concentrations −13” value at human GLP-1 receptor (peptide concentration −13 (log M)) worked out at 5.688.
